Data as given in patent US20120219615A1, “Therapeutic Use of a TLR Agonist and Combination Therapy” (The Trustees of the University of Pennsylvania, priority 2010, published 2012).

Assays:
Assay type in all cases: cell-based
TLR8 = target: T1, TLR8 (Homo sapiens, UniProt Q9NR97); assay: HEK293 cells transfected with TLR8 and NF-κB driven reporter gene; details: HEK293 transfectants
T1 construct: assessed in peripheral blood mononuclear cells (PBMCs) from 15 healthy donors; endogenous in cells; host or cells: PBMCs from 15 healthy donors
T1 sequence (Q9NR97 27-1041): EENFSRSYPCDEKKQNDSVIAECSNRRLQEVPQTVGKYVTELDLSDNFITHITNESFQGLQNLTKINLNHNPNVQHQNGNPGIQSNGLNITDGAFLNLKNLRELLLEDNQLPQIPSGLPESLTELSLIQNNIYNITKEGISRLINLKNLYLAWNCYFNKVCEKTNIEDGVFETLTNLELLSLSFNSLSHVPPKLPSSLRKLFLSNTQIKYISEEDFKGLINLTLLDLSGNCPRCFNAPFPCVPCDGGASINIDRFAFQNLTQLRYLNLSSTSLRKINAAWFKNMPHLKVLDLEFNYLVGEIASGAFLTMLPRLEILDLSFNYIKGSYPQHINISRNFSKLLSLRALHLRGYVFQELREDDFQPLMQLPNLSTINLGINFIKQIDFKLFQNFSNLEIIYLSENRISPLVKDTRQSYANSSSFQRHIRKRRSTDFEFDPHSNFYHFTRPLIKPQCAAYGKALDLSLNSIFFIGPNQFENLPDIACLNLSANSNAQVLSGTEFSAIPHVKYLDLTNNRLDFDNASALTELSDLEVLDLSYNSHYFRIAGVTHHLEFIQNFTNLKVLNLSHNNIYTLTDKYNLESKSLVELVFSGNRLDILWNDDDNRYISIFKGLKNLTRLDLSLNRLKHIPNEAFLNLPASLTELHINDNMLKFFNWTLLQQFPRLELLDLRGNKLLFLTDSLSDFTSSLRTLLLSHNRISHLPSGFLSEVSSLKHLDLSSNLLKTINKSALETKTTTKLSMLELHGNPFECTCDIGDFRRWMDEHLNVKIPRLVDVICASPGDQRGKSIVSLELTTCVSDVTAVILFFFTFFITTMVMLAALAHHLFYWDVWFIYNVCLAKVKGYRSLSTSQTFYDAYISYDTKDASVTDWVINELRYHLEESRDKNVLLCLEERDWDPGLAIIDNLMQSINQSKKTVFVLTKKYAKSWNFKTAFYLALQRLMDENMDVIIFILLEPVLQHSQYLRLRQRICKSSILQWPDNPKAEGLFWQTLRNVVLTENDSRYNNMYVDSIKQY
Description: (§1) The half-maximal effective concentration (EC50) for VTX-2337 activation of TLR8 and TLR7 was assessed in peripheral blood mononuclear cells (PBMCs) from 15 healthy donors and also in HEK293 cells transfected with TLR8 or TLR7 and an NF-κB driven reporter gene. […] Also it was observed that VTX-2337 had no activity on TLR2, TLR3, TLR4, TLR5, TLR6, or TLR9 at concentrations up to 25 μM.

TLR2 = TLR2 (Homo sapiens, UniProt O60603); assay: Activity on TLR2; details: concentrations up to 25 μM
Description: as §1

TLR4 = TLR4 (Homo sapiens, UniProt O00206+Q9Y6Y9); assay: Activity on TLR4; details: concentrations up to 25 μM
Description: as §1

TLR7 = target: T2, TLR7 (Homo sapiens, UniProt Q9NYK1); assay: IFNα production in PBMCs (marker of TLR7 activation); details: PBMCs from 15 healthy donors
T2 construct: expressed in transfected cells; host or cells: HEK293
T2 sequence (Q9NYK1 27-1049): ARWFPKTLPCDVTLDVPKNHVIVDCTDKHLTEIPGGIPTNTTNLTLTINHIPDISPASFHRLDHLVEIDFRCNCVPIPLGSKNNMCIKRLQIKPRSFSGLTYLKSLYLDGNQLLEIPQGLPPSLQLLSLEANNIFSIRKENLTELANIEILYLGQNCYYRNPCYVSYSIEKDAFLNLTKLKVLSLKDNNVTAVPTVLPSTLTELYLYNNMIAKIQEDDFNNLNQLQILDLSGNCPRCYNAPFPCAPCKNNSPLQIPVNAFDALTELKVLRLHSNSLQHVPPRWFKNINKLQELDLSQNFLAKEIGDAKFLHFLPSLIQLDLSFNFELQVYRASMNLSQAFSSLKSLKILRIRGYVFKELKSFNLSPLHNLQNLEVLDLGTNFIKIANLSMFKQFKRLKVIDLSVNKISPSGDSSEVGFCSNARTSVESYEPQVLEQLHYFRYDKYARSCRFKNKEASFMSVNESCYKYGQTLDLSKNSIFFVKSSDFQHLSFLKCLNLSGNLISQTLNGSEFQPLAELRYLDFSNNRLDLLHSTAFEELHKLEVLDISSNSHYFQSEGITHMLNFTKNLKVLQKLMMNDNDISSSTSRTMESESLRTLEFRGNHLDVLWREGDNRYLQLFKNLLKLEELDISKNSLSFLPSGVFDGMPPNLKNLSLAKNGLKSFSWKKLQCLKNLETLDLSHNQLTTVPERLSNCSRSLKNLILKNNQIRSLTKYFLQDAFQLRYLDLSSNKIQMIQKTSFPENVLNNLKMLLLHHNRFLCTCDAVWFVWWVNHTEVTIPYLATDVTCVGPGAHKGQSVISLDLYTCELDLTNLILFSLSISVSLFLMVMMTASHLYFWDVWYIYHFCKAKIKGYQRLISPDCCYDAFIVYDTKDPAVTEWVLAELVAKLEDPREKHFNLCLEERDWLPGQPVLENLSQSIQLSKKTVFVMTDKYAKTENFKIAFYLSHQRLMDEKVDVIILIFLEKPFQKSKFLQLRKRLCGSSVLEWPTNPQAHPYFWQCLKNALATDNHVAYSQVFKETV
Description: as §1

TLR2, sequence (O60603 21-784, species assumed): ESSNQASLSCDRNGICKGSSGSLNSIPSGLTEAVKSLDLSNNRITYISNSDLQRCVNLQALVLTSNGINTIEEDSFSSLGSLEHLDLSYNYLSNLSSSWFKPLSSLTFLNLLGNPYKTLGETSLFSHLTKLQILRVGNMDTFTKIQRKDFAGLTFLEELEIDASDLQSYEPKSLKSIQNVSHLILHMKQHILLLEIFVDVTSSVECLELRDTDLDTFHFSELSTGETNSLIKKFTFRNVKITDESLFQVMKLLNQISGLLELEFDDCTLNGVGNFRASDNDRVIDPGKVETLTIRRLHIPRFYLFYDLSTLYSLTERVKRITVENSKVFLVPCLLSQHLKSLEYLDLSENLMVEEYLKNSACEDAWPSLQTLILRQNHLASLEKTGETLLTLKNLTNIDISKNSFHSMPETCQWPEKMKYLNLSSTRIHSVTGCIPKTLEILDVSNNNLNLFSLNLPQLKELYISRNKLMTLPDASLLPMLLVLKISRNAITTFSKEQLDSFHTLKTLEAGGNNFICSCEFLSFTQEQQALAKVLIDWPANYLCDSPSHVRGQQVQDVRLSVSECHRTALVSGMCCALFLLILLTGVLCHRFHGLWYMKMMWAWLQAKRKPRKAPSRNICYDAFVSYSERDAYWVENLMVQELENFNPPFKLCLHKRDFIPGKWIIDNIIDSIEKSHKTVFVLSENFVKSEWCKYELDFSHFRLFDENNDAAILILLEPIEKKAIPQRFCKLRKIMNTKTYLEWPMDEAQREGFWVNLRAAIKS
TLR4, sequence (O00206 24-839, species assumed): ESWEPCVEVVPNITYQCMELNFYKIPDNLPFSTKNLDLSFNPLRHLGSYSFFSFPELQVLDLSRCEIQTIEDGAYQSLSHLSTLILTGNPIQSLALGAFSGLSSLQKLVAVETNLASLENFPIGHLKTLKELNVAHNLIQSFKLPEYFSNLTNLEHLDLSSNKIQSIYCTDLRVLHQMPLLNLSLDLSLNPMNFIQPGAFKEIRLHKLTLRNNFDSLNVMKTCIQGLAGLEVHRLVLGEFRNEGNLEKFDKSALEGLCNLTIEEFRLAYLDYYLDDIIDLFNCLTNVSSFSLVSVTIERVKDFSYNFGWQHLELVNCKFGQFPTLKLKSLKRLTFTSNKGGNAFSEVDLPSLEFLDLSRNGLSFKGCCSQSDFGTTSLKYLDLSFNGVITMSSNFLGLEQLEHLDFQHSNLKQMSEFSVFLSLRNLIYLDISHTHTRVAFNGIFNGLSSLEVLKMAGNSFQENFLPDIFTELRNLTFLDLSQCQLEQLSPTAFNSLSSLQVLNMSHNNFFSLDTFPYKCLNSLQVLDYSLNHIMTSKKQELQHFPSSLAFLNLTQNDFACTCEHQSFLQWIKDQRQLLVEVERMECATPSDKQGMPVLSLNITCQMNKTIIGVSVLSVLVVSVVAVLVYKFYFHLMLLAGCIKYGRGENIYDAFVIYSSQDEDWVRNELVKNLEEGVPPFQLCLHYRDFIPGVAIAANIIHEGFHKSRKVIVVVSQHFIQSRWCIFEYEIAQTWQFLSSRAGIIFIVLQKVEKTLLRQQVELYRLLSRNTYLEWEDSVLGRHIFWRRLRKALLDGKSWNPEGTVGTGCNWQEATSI
TLR4, sequence (Q9Y6Y9 17-160 limits assumed, species assumed): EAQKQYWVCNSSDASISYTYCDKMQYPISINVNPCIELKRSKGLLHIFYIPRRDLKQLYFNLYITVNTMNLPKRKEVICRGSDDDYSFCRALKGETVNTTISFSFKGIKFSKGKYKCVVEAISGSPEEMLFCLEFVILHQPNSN

Compound: CCCN(CCC)C(=O)C1=Cc2ccc(-c3ccc(C(=O)N4CCCC4)cc3)cc2N=C(N)C1 [VTX-2337, 2-amino-N,N-dipropyl-8-(4-(pyrrolidine-1-carbonyl)phenyl)-3H-benzo[b]azepine-4-carboxamide]
- EC50 (TLR8): 70 nM
- activity on TLR2 (TLR2): no activity
- activity on TLR4 (TLR4): no activity
- EC50 (TLR7): > 3330 nM
